Source: article PMC8187775, “Metabolism and Tissue Distribution of Chelerythrine and Effects of Macleaya Cordata Extracts on Liver NAD(P)H Quinone Oxidoreductase” (Frontiers in Veterinary Science, 2021)

Key:
[1] = Metabolite profile of chelerythrine in plasma, urine and feces of rats after intragastric chelerythrine (HPLC/QqTOF-MS)
Procedure: Ten SD rats (160–180 g, five males and five females) were individually placed in stainless steel metabolic cages. […] Chelerythrine in water with the dissolving aid of Tween-80 was intragastrically administered to rats at a dose of 10 mg/kg. One milliliter whole blood samples were collected from retro orbital sinus with a heparinized blood collection tube at 3 h following drug dosing. Each collected blood sample was centrifuged at 3,000 rpm at 4°C for 10 min to obtain plasma samples. […] All samples were collected from female and male rats and stored at −70°C.
(§1) The preparations of plasma, urine, feces, and tissues were pretreatments according to our current study ([19]).
(§2) The injection volume was 5 μL.
Nitrogen was used as atomization gas, and the flow rate was 9 L/min. The parameters of the mass spectrometer were as follows: nozzle voltage 1 kv, capillary voltage 4.0 kv, sheath gas temperature 350°C, sheath gas flow rate 11 L/min, nebulizer voltage 35 psig. The quarantine window was set at 1 amu. The instrument automatically performed the internal mass calibration though the automated calibrate transfer system. […] All the data acquisition was controlled by Agilent Mass Hunter software (version B.01.03 Build 1.3.157.0 2), and the Agilent Mass Hunter software (Qualitative Analysis B.04.0) was used to accurately take mass measurements of each peak from the total ion chromatograms. Then, these metabolites were subjected to accurate EIC, and the acceptance or rejection was decided according to the peak appearing in the EIC. Structural elucidations of chelerythrine metabolites were carried out on the basis of the mass change from the metabolite or parent drug, the predicted elemental compositions, and the interpretation of accurate MS/MS spectra.

rat liver cytosol = test: Effect of inhibitors on chelerythrine iminium bond reduction to DHCHE by rat liver cytosol; assay type: in vitro ADME; conditions: 100 μmol/L inhibitor, 0.25 mg/mL cytosol protein, 2 mM NADPH, 10 μg/mL chelerythrine, 15 min
Procedure: In brief, the incubation mixture consisted of 0.25 mg/mL cytosol protein, 5 mM MgCl2, 100 μmol/L inhibitor, and 2 mM NADPH in 0.05 M Tris-HCl buffer (pH 7.4). The inhibitors were dicoumarol (quinone oxidoreductase 1), quercetin (quinone oxidoreductase 2, carbonyl reductase), menadione (aldehyde oxidase, carbonyl reductase), and 7-hydroxycoumarin (xanthine oxidase). The reaction was preincubated at 37°C for 5 min. […] The incubation mixtures without the inhibitor or cytosol protein acted as the blank control. The reaction was stopped by adding 200 μL ice-cold acetonitrile after 15 min, and the mixture was vortexed and centrifuged at 12,000 g for 15 min. […] Phenomenex Co. USA). The mobile phase consisted of a 30/70 (v/v) mixture of solvent A (0.2% aqueous acetic acid solution) and solvent B (acetonitrile). The injection dose was 10 μl and the flow rate was 1 mL/min. The column temperature was set to 35°C and the detection wavelength was set to 285 nm. The DHCHE standard curve varied linearly in the concentration range from 0.050 to 10 μg/mL. […] The lower limit of quantification was 0.050 μg/mL.

[2] = Chelerythrine/sanguinarine and metabolites in rat tissues after 3 weeks of intragastric M. cordata extracts (HPLC/QqTOF-MS); assay type: in vivo
Procedure: Tissue samples including cecal contents, lung, heart, liver, kidney, and spleen were collected at 24 and 48 h after the last administration and stored at −70°C.
as §2
The quarantine window was set at 1 amu.

[3] = biological target: T1, NAD(P)H quinone oxidoreductase (NQO1) (Rattus norvegicus, UniProt P05982); test: In vitro inhibition of rat cytosolic NQO1 activity (DCPIP reduction); assay type: biochemical; conditions: for NQO1 activities: compound 40.00 μM, control 67.14 ± 4.82; for NQO1 activities / Effect on NQO1 activity: rat liver cytosol; for Effect on NQO1 activity: in vitro
T1 construct: 50 μg/mL rat liver cytosol; from tissue; host or cells: rat liver cytosol
T1 sequence (P05982 2-274 limits assumed): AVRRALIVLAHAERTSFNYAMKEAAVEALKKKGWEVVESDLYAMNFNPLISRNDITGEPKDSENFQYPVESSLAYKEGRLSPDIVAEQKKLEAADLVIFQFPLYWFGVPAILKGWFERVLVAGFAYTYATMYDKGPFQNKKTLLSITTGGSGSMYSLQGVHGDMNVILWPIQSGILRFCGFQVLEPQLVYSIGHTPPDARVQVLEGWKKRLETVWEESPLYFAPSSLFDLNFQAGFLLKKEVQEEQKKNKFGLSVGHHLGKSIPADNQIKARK
Procedure: Any change in absorbance was monitored at 620 nm, and NQO1 activity was calculated by using the extinction coefficient for DCPIP (ε = 21 mM^−1cm^−1) and expressed as nanomles of DCPIP reduced per minute per milligram of protein.
The inhibitory effects of sanguinarine and chelerythrine were determined by the incubation of the reaction mixture with or without substrate. […] All of the incubations and sample preparations were carried out as described for the NQO1 assay above.

in vivo = test: in vivo
Procedure: Tissue distribution was carried out in eighteen SD rats (160–180 g, nine males and nine females). Twelve rats (six male and six female) were intragastrically administered with M. cordata extracts at a single dosage of 5 mg/kg (containing about 2 mg/kg dose of sanguinarine and 1 mg/kg dose of chelerythrine) in water with the dissolving aid of Tween-80 for 3 weeks. Three male and three female rats were given the same amount of water as the blank control group by intragastric administration.
as §1
The controls of the operating parameters were as follows: capillary voltage, 3,500 V; EM voltage, 200 V; dry gas (N2) flow rate, 12 L/min; ion source temperature, 350°C; nebulizer, 25 psi.
The proposed method was validated by evaluation of specificity, accuracy, precision, LOD, and LOQ.

[4] = set-up: method as in none printed; conditions: no species, dose or reference given; cited from earlier work
[5] = Metabolite profile of sanguinarine in plasma, urine and feces of rats after intragastric M. cordata extracts; assay type: in vivo, rat

SMILES: COc1ccc2c(c1OC)CN(C)c1c-2ccc2cc3c(cc12)OCO3 [DHCHE, dihydrochelerythrine]
- Found in feces ([1]; rat, in vivo): found
- Observed in feces ([1]; rat, in vivo): observed

SMILES: CC1=CC(=O)c2ccccc2C1=O [menadione]
- Effect on iminium bond reduction of chelerythrine (DHCHE formation) in rat liver cytosol (rat liver cytosol): could inhibit

SMILES: O=c1ccc2ccc(O)cc2o1 [7-hydroxycoumarin]
- Effect on iminium bond reduction of chelerythrine (DHCHE formation) in rat liver cytosol (rat liver cytosol): could inhibit

SMILES: COc1ccc2c(c[n+](C)c3c4cc5c(cc4ccc23)OCO5)c1OC [Chelerythrine]
- Detection in plasma ([1]; male and female rats, three hours after intragastric chelerythrine): no parent drug and metabolites were detected
- Found in spleen, lung, kidney, liver or heart by HPLC/QqTOF-MS [2]: no sanguinarine and chelerythrine or their metabolites were found
- NQO1 activities [3]: 64.90 ± 4.24 nanomolars of 2,6-dichlorophenolindophenol reduced per minute per milligram of protein
- Effect on NQO1 activity [3]: weak impact
- Concentrations in (others) tissues (in vivo; both, SD, rat, in vivo): < 15 ng/g
- concentration at 24 h (in vivo; both, SD, rat, in vivo, Concentration in spleen): 44 ng/mL
- concentration at 48 h (in vivo; both, SD, rat, in vivo, Concentration in the liver): 20.6 ng/mL
- Cmax [4]: 5.06 ng/mL
- T1/2 [4]: 2.82 h
- Tmax [4]: 1.67 h

SMILES: CN1Cc2c(ccc3c2OCO3)-c2ccc3cc4c(cc3c21)OCO4 [Metabolite S1, dihydrosanguinarine]
- Observed in rats in vivo (feces 0–24 h) ([5]; 5 mg/kg M. cordata extracts intragastric): observed

SMILES: O=c1oc2ccccc2c(O)c1Cc1c(O)c2ccccc2oc1=O [Dicoumarol, dicoumarol]
- Effect on iminium bond reduction of chelerythrine (DHCHE formation) in rat liver cytosol (rat liver cytosol): could inhibit

SMILES: C[n+]1cc2c3c(ccc2c2ccc4cc5c(cc4c21)OCO5)OCO3 [Sanguinarine]
- Found in spleen, lung, kidney, liver or heart by HPLC/QqTOF-MS [2]: no sanguinarine and chelerythrine or their metabolites were found
- NQO1 activities [3]: 45.08 ± 4.34 nanomolars of 2,6-dichlorophenolindophenol reduced per minute per milligram of protein
- IC50 ([3]; rat liver cytosol 50 μg/mL, 40 μM DCPIP, 0.2 mM NADH, 0–40 μM compound): 112 ± 6.17 µM
- Effect on NQO1 activity [3]: statistically significant decline
- concentration at 24 h (in vivo; both, SD, rat, in vivo, 5 mg/kg, Residue in heart, 24 h after last dose, M. cordata extracts 5 mg/kg intragastric for 3 weeks): 2.91 ng/g
- concentration at 48 h (in vivo; both, SD, rat, in vivo, 5 mg/kg, Residue in heart, 48 h after last dose, M. cordata extracts 5 mg/kg intragastric for 3 weeks): 2.57 ng/g
- concentration at 24 h (in vivo; both, SD, rat, in vivo, 5 mg/kg, Residue in kidney, 24 h after last dose, M. cordata extracts 5 mg/kg intragastric for 3 weeks): 3.77 ng/g
- concentration at 48 h (in vivo; both, SD, rat, in vivo, 5 mg/kg, Residue in kidney, 48 h after last dose, M. cordata extracts 5 mg/kg intragastric for 3 weeks): 5.65 ng/g
- concentration at 24 h (in vivo; both, SD, rat, in vivo, 5 mg/kg, Residue in liver, 24 h after last dose, M. cordata extracts 5 mg/kg intragastric for 3 weeks): 10.4 ng/g
- concentration at 48 h (in vivo; both, SD, rat, in vivo, 5 mg/kg, Residue in liver, 48 h after last dose, M. cordata extracts 5 mg/kg intragastric for 3 weeks): 9.8 ng/g
- concentration at 24 h (in vivo; both, SD, rat, in vivo, 5 mg/kg, Residue in lung, 24 h after last dose, M. cordata extracts 5 mg/kg intragastric for 3 weeks): 2.29 ng/g
- concentration at 48 h (in vivo; both, SD, rat, in vivo, 5 mg/kg, Residue in lung, 48 h after last dose, M. cordata extracts 5 mg/kg intragastric for 3 weeks): 2.01 ng/g
- concentration at 24 h (in vivo; both, SD, rat, in vivo, 5 mg/kg, Residue in spleen, 24 h after last dose, M. cordata extracts 5 mg/kg intragastric for 3 weeks): 2.01 ng/g
- concentration at 48 h (in vivo; both, SD, rat, in vivo, 5 mg/kg, Residue in spleen, 48 h after last dose, M. cordata extracts 5 mg/kg intragastric for 3 weeks): 1.91 ng/g
- Concentrations in other tissues (in vivo; tissues other than chelerythrine in liver 48 h and spleen 24 h): < 11 ng/g
- Observed in plasma at 3 h and urine of 0–24 h ([5]; rats, after intragastric M. cordata extracts): No parent drug or metabolites were observed

SMILES: O=c1c(O)c(-c2ccc(O)c(O)c2)oc2cc(O)cc(O)c12 [quercetin]
- Effect on iminium bond reduction of chelerythrine (DHCHE formation) in rat liver cytosol (rat liver cytosol): could inhibit
